From patent US5232923A, “Catechol derivatives and pharmaceutical preparations containing same” (Mitsui Toatsu Chemicals, Incorporated, priority 1988, dated 1993)
Read-outs that look alike come from different tables or passages of the source.

Tested on: production and secretion of NGF in mouse L-M cells
Experiment: Promoting activity for the production and secretion of NGF in mouse L-M cells (ELISA of medium after 24 h)
Type: cell-based
Conditions: for fold induction at 200 µM: Mus musculus, 24 h, read-out: NGF Increase Ratio; for NGF Concentration: 24 hours, mean of four determinations
Experimental: Promoting activity for the production and secretion of NGF in mouse L-M cells
The medium was cultured for 3 days at a temperature of 37° C. […] The sample of the derivative tested is contained in the medium at a prescribed concentration as illustrated in the Tables. […] Data are expressed as fold increase in NGF content of the medium over that cultivated in the absence of the derivative to be tested. […] Data are presented as the mean of four determinations. The results are illustrated in Tables 1-5.

[1] = Table 2, L-M cells, sample concentration 0.2 mM, fold increase over control (1.00)
[2] = Table 2, L-M cells, sample concentration 0.2 mM, control 0.34
[3] = Table 1, L-M cells, sample concentration 0.2 mM, control 0.33
[4] = Table 1, L-M cells, sample concentration 0.2 mM, fold increase over control (1.00)

SMILES	fold induction at 200 µM [1]	NGF Concentration [2] [ng/well]	fold induction at 200 µM	NGF Concentration [3] [ng/well]	fold induction at 200 µM [4]
CCCCNC(=O)Cc1ccc(O)c(O)c1 [Compound 66]	5.85	1.99	–	–	–
CCCCNC(=O)Cc1ccc(OC(C)=O)c(OC(C)=O)c1 [Compound 77]	5.26	1.86	–	–	–
CCCNCCc1ccc(O)c(O)c1 [Compound 20]	–	–	11	3.62	–
CCNCc1ccc(O)c(O)c1 [Compound 23]	–	–	–	3.08	9.33
CCCC(=O)NCc1ccc(O)c(O)c1 [Compound 6]	–	–	–	2.95	8.94
CCCNCc1ccc(O)c(O)c1 [Compound 24]	–	–	–	2.94	8.91
CCCNC(=O)Cc1ccc(O)c(O)c1 [Compound 65]	5.21	1.77	–	–	–
CNC(=O)CCCc1ccc(O)c(O)c1 [Compound 68]	5.09	1.73	–	–	–
CCNCCCc1ccc(O)c(O)c1 [Compound 27]	–	–	–	2.89	8.76
CCC(=O)NCCCc1ccc(O)c(O)c1 [Compound 8]	–	–	–	2.90	8.79
COC(=O)CCCc1ccc(O)c(O)c1 [Compound 42]	5.32	1.81	–	–	–
CCC(=O)NCCc1ccc(OC(C)=O)c(OC(C)=O)c1 [Compound 14]	–	–	–	3.49	10.6
NC(=O)Cc1ccc(O)c(O)c1 [Compound 62]	4.79	1.63	–	–	–
CCCOC(=O)CCCc1ccc(OC(C)=O)c(OC(C)=O)c1 [Compound 56]	5.09	1.73	–	–	–
CCCOC(=O)Cc1ccc(OC(C)=O)c(OC(C)=O)c1 [Compound 52]	5.53	1.88	–	–	–
CC(=O)Oc1ccc(CC(N)=O)cc1OC(C)=O [Compound 75]	5.53	2.03	–	–	–
CCCCOC(=O)Cc1ccc(OC(C)=O)c(OC(C)=O)c1 [Compound 53]	4.79	1.63	–	–	–
NCCc1ccc(O)c(O)c1 [Comparative compound, reference compound]	–	–	3.94	1.30	–
CCCCOC(=O)CCCc1ccc(O)c(O)c1 [Compound 45]	5.41	1.84	–	–	–
CCCCOC(=O)CCCc1ccc(OC(C)=O)c(OC(C)=O)c1 [Compound 57]	5.32	1.81	–	–	–
COC(=O)CCc1ccc(O)c(O)c1 [Compound 34]	5.79	1.97	–	–	–
CC(=O)Oc1ccc(CCN(C)C(C)=O)cc1OC(C)=O [Compound 18]	–	–	–	3.95	12
COC(=O)Cc1ccc(O)c(O)c1 [Compound 38]	4.79	1.63	–	–	–
CNC(=O)Cc1ccc(O)c(O)c1 [Compound 63]	5.82	1.98	–	–	–
CCCOC(=O)CCc1ccc(O)c(O)c1 [Compound 36]	5.53	1.88	–	–	–

SMILES	fold induction at 200 µM [1]	NGF Concentration [2] [ng/well]	fold induction at 200 µM	NGF Concentration [3] [ng/well]	fold induction at 200 µM [4]
CCC(=O)N(C)CCc1ccc(O)c(O)c1 [Compound 11]	–	–	–	3.32	10.1
NC(=O)CCCc1ccc(O)c(O)c1 [Compound 67]	4.97	1.69	–	–	–
CCCCNC(=O)CCCc1ccc(OC(C)=O)c(OC(C)=O)c1 [Compound 80]	5.74	1.95	–	–	–
CC(=O)NCc1ccc(OC(C)=O)c(OC(C)=O)c1 [Compound 16]	–	–	–	2.72	8.24
CCCCNCc1ccc(O)c(O)c1 [Compound 25]	–	–	–	2.91	8.82
CC(=O)Oc1ccc(CCN(C)C)cc1OC(C)=O [Compound 30]	–	–	11.5	3.80	–
COC(=O)CCc1ccc(OC(C)=O)c(OC(C)=O)c1 [Compound 46]	5.91	2.01	–	–	–
CCC(=O)NCc1ccc(O)c(O)c1 [Compound 5]	–	–	–	2.75	8.33
CCCCOC(=O)Cc1ccc(O)c(O)c1 [Compound 41]	5.26	1.79	–	–	–
CCCNCCCc1ccc(O)c(O)c1 [Compound 28]	–	–	–	2.79	8.45
CC(=O)Oc1ccc(CCCC(N)=O)cc1OC(C)=O [Compound 78]	4.94	1.79	–	–	–
CCN(C)CCc1ccc(OC(C)=O)c(OC(C)=O)c1 [Compound 31]	–	–	11.4	3.76	–
CCCOC(=O)CCc1ccc(OC(C)=O)c(OC(C)=O)c1 [Compound 48]	6.26	2.13	–	–	–
CC(=O)NCc1ccc(O)c(O)c1 [Compound 4]	–	–	–	2.60	7.88
COC(=O)CCCc1ccc(OC(C)=O)c(OC(C)=O)c1 [Compound 54]	5.53	1.88	–	–	–
CCC(=O)NCCc1ccc(O)c(O)c1 [Compound 2]	–	–	–	3.10	9.39
CCCOC(=O)CCCc1ccc(O)c(O)c1 [Compound 44]	5.62	1.91	–	–	–
CCCNC(=O)CCc1ccc(O)c(O)c1 [Compound 61]	5.91	2.01	–	–	–
CCCC(=O)NCCCc1ccc(O)c(O)c1 [Compound 9]	–	–	–	2.75	8.33
CCCNC(=O)CCCc1ccc(O)c(O)c1 [Compound 70]	5.38	1.83	–	–	–
CCCCNC(=O)CCCc1ccc(O)c(O)c1 [Compound 71]	5.71	1.83	–	–	–
CNCc1ccc(O)c(O)c1 [Compound 22]	–	–	–	2.97	9
CNC(=O)CCc1ccc(O)c(O)c1 [Compound 59, N-Methyl-3,4-dihydroxyphenylpropionamide]	5.62	1.91	–	–	–
COC(=O)Cc1ccc(OC(C)=O)c(OC(C)=O)c1 [Compound 50]	5.09	1.73	–	–	–
CCCOC(=O)Cc1ccc(O)c(O)c1 [Compound 40]	5.41	1.84	–	–	–
